Experimental data as given in PMC3522424 (Vaccine, 2012).

Test system: PBMCs from HIV-infected HLA-A2-positive subjects
Test: IFNγ ELISpot with PBMCs from HIV-infected HLA-A2 subjects
Details: for % donors responding positively in ELISpots: Providence and Mali donors together; for IFNγ ELISpot response, donor H_0912: HLA-A A0201; for IFNγ ELISpot response, donor H_0865: HLA-A A02011; for IFNγ ELISpot response, donor 0015404: A02, A0285, A0286; for IFNγ ELISpot response, donor 0015299 / IFNγ ELISpot response, donor 0018349: A0208; for IFNγ ELISpot response, donor 0015269: A0209, A0231
[1] = cohort #1 Providence, positive donors / 16 donors
[2] = cohort #1 Providence, peptide 10 μg/ml, overnight 37°C
[3] = cohort #3 Bamako, Mali, positive donors / 8 donors
[4] = cohort #3 Bamako, Mali, peptide 10 μg/ml, overnight 37°C

Row | Sequence | IFNγ ELISpot response, stated in words (PBMCs from HIV-1-infected HLA-A2 subjects, Providence and/or Bamako as stated) | % donors responding positively in ELISpots (peptide 10 μg/ml) | Total responses per epitope [1] | IFNγ ELISpot response, donor H_0912 [2] | IFNγ ELISpot response, donor H_0836 (cohort #1 Providence, HLA-A A02011, A2901, peptide 10 μg/ml, overnight 37°C) | IFNγ ELISpot response, donor H_0865 [2] | IFNγ ELISpot response, donor H_0854 (cohort #1 Providence, HLA-A A02011, A3401, peptide 10 μg/ml, overnight 37°C) | Total responses per epitope [3] | IFNγ ELISpot response, donor 0015404 [4] | IFNγ ELISpot response, donor 0015299 [4] | IFNγ ELISpot response, donor 0018349 [4] | IFNγ ELISpot response, donor 0015269 [4] | Subjects with a positive response (cohort #2 Providence, eight subjects) | Total responses per epitope (cohort #2 Providence, positive donors / 8 donors) | IFNγ ELISpot response, donor 0517001 (cohort #2 Providence, A2, A3, B44, Cw05, Cw07, peptide 10 μg/ml, overnight 37°C) | IFNγ ELISpot response, donor 0902991 (cohort #2 Providence, A2, A30, B39, peptide 10 μg/ml, overnight 37°C)
1 | DIQKLVGKL [Peptide 1010] | elicited IFNγ ELISpot responses | 6.3% | 1/16 | - (ELISpot responses that fall below this cutoff point are indicated with a dash mark) | 64 spots per 10^6 PBMCs | - (ELISpot responses that fall below this cutoff point are indicated with a dash mark) |  |  |  |  |  |  |  |  |  | 
2 | GIKPVVSTQL [Peptide 1001] |  | 20.8% | 2/16 | 903 spots per 10^6 PBMCs |  | - (ELISpot responses that fall below this cutoff point are indicated with a dash mark) | 75 spots per 10^6 PBMCs | 3/8 | 111 spots per 10^6 PBMCs | 53 spots per 10^6 PBMCs | 37 spots per 10^6 PBMCs | - (ELISpot responses that fall below this cutoff point are indicated with a dash mark) |  |  |  | 
3 | ILKEPVHGVY [Peptide 1249] |  |  |  |  |  |  |  |  |  |  |  |  | 37.5% | 3/8 | 117 spots per 10^6 PBMCs | 2380 spots per 10^6 PBMCs
4 | PLQLPPLERL [Peptide 2004] |  | 50.0% |  |  |  |  |  | 4/8 | 59 spots per 10^6 PBMCs | 36 spots per 10^6 PBMCs | 37 spots per 10^6 PBMCs | - (ELISpot responses that fall below this cutoff point are indicated with a dash mark) |  |  |  | 
5 | RLEPWKHPG [Peptide 1017] |  | 6.3% | 1/16 | 29 spots per 10^6 PBMCs |  | - (ELISpot responses that fall below this cutoff point are indicated with a dash mark) |  |  |  |  |  |  |  |  |  | 
6 | RTLNAWVKV [Peptide 3003] |  | 25.0% |  |  |  |  |  | 2/8 | 43 spots per 10^6 PBMCs | - (ELISpot responses that fall below this cutoff point are indicated with a dash mark) | - (ELISpot responses that fall below this cutoff point are indicated with a dash mark) | - (ELISpot responses that fall below this cutoff point are indicated with a dash mark) |  |  |  | 
7 | SAEPVPLQL [Peptide 2003] |  | 50.0% |  |  |  |  |  | 4/8 | 50 spots per 10^6 PBMCs | 25 spots per 10^6 PBMCs | 25 spots per 10^6 PBMCs | - (ELISpot responses that fall below this cutoff point are indicated with a dash mark) |  |  |  | 
8 | WLWYIKIFI [Peptide 3002] |  | 12.5% |  |  |  |  |  | 1/8 | 63 spots per 10^6 PBMCs | - (ELISpot responses that fall below this cutoff point are indicated with a dash mark) | - (ELISpot responses that fall below this cutoff point are indicated with a dash mark) | - (ELISpot responses that fall below this cutoff point are indicated with a dash mark) |  |  |  | 
